# Reference: ChEMBL document CHEMBL1152823, “Identification of novel epoxide inhibitors of hepatitis C virus replication using a high-throughput screen” (Antimicrob Agents Chemother, 2007)
# How the values were obtained:
# Hepatitis C virus [1] = experiment: Antiviral activity against HCV replication in human HuH7 cells expressing Rep-Feo replicon by luciferase assay; assay type: functional, organism-based, Hepacivirus hominis; details: Huh-7
# [2] = Cytotoxicity against human HuH7 cells; assay type: cell-based, Huh-7
# Hepatitis C virus [3] = experiment: Antiviral activity against HCV JFH1 replication in human Huh7.5.1 cells at 5 uM after 48 hrs by quantitative RT-PCR analysis relative to 1 ng/ml interferon; assay type: functional, Hepacivirus hominis, JFH-1, Huh-7
# Hepatitis C virus [4] = experiment: Antiviral activity against HCV JFH1 replication in human Huh7.5.1 cells at 1 uM after 48 hrs by quantitative RT-PCR analysis relative to 1 ng/ml interferon; assay type: functional, Hepacivirus hominis, JFH-1, Huh-7
EC50 (Hepatitis C virus [1]) [µM],SMILES,CC50 [2] [µM],Activity (Hepatitis C virus [3]) [%],Activity (Hepatitis C virus [4]) [%]
19.6,O=C1C2C=C(Br)C(CC2OCCCCCCO)[C@]12CO2 (stereo partly specified),> 50,–,–
1.4,C#CCCCO/N=C1/[C@H]2CCN3C(=O)N(c4ccccc4)CN3[C@H]2[C@H](O)[C@@H]2O[C@H]12,> 50,–,–
2.6,COc1ccc(O[C@H]2C=C[C@@H](c3ccccc3)O[C@@H]2CO/N=C2/[C@H]3CCn4c(=O)n(-c5ccccc5)c(=O)n4[C@H]3[C@H](O)[C@@H]3O[C@H]23)cc1,18,–,–
8,CO[C@]12C=C(Br)C(CC1c1cccc(C)c1)[C@]1(CO1)C2=O (stereo partly specified),> 50,–,–
9.1,O=C1C2C=C(I)C(CC2c2ccccc2)[C@]12CO2 (stereo partly specified),> 50,–,–
12.7,C[C@@]12COC[C@]13C=C(Br)C(C2)[C@]1(CO1)C3=O,> 50,–,–
30,c1ccc(C2NCCc3c2[nH]c2ccccc32)cc1 (stereo unspecified),> 50,–,–
7.75,C=CC[C@@H]1C=C[C@H](O/N=C2\[C@H]3CCn4c(=O)n(-c5ccccc5)c(=O)n4[C@H]3[C@H](O)[C@@H]3O[C@H]23)[C@@H](CO)O1,35.3,–,–
14.2,CCCNC(=O)OC[C@H]1O[C@H](CCO/N=C(\C)CCN2CCc3nc(-c4ccccc4)c(-c4ccccc4)cc3C2)C=C[C@@H]1Oc1ccc(OC)cc1,> 50,–,–
7,O=c1n(-c2ccccc2)c(=O)n2n1CC[C@@H]1/C(=N\OC[C@@H](O)COCc3ccco3)[C@H]3O[C@H]3[C@@H](O)C12 (stereo partly specified),> 50,–,–
19.7,O=C1C2C=C(Br)C(CC2c2ccccc2)[C@]12CO2 (stereo partly specified),> 50,–,–
6.6,O=C1[C@@]2(CO)C=C(Br)C(CC2c2ccccc2)[C@]12CO2 (stereo partly specified),> 50,–,–

# More lines, now with the values behind:
SMILES,EC50 (Hepatitis C virus [1]) [µM],CC50 [2] [µM],Activity (Hepatitis C virus [3]) [%],Activity (Hepatitis C virus [4]) [%]
CC(=O)OC[C@H]1OC(CCO/N=C2/[C@H]3CCn4c(=O)n(-c5ccccc5)c(=O)n4[C@H]3[C@H](O)[C@@H]3O[C@H]23)C=C[C@@H]1OC(C)=O (stereo partly specified),0.7,9,–,–
O=C1C2C=C(I)C(CC2OCCCCO)[C@]12CCCO2 (stereo partly specified),> 30,> 50,–,–
O=C1[C@@]2(CO)C=C(I)C(CC2c2ccccc2)[C@]12CO2 (stereo partly specified),3.5,27.1,48.4,45.1
C[C@@H](O/N=C1\[C@H]2CCn3c(=O)n(-c4ccccc4)c(=O)n3C2[C@H](O)[C@@H]2O[C@H]12)c1cn([C@H](CO)Cc2ccccc2)nn1 (stereo partly specified),7.6,> 50,–,–
O=C1C2C=C(I)C(CC2OCCCCO)[C@]12CO2 (stereo partly specified),25.7,> 50,–,–
Cc1cc(C)c(-c2cc([C@H](C)O/N=C3\[C@H]4CCn5c(=O)n(-c6ccccc6)c(=O)n5C4[C@H](O)[C@@H]4O[C@H]34)on2)c(C)c1 (stereo partly specified),< 0.5,19.5,48.4,45.1
CC[C@@H](c1ccccc1)N1CN2[C@H]3[C@H](O)[C@@H]4O[C@@H]4/C(=N\OC[C@@H](O)COCc4ccco4)[C@H]3CCN2C1=O,2.5,> 50,–,–
C#CCCCO/N=C1/C[C@@H](O)[C@@H](O)[C@@H]2[C@@H]3C(=O)N(CCC(=O)OCC)C(=O)[C@@H]3CC[C@@H]12,> 100,> 50,–,–
COc1ccc(O[C@H]2C=C[C@@H](c3ccccc3)O[C@@H]2CO/N=C(\C)CCN2CCc3nc(-c4ccccc4)c(-c4ccccc4)cc3C2)cc1,21.1,> 50,–,–
Cc1cc2c(nc1C)CCCN2C[C@H](C)O/N=C1\[C@H]2CCn3c(=O)n(-c4ccccc4)c(=O)n3[C@H]2[C@H](O)[C@@H]2O[C@H]12,1.5,39.3,–,–
CC(=O)OC[C@H]1O[C@@H](O/N=C2/[C@H]3CCn4c(=O)n(-c5ccccc5)c(=O)n4C3[C@H](O)[C@@H]3O[C@H]23)[C@H](OC(C)=O)[C@@H](OC(C)=O)[C@@H]1OC(C)=O (stereo partly specified),42.9,> 50,–,–
C#CCCCO/N=C1/[C@H]2CCN3C(=O)N([C@@H](CC)c4ccccc4)CN3[C@H]2[C@H](O)[C@@H]2O[C@H]12,3.8,> 50,–,–
C[C@H](O/N=C1\[C@H]2CCn3c(=O)n(-c4ccccc4)c(=O)n3C2[C@H](O)[C@@H]2O[C@H]12)c1cn([C@H](CO)Cc2ccccc2)nn1 (stereo partly specified),7,> 50,–,–
O=C1C2C=C(I)C(CC2OCCCCCCO)[C@]12CO2 (stereo partly specified),26.7,> 50,–,–
